Source: the supplement of paper PMC10307832

What was measured:
Test in all cases: relative viability (nuclei count vs DMSO), 5 days (fraction); higher = more cells survive
[1] = compound: C=CCNC1=C2C[C@@H](C)C[C@H](OC)[C@H](O)[C@@H](C)/C=C(\C)[C@H](OC(N)=O)[C@@H](OC)/C=C\C=C(/C)C(=O)NC(=CC1=O)C2=O [17-AAG] + O=C(c1cc(Cc2n[nH]c(=O)c3ccccc23)ccc1F)N1CCN(C(=O)C2CC2)CC1 [Olaparib] (partner 8 µM)
Summary of the method: (§1)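 The day after seeding in 1536-well plates, lung cancer cell lines were treated by pin tool with a single drug, or with a fixed anchor-drug dose together with five library-drug doses (not always all listed) in √10 steps. After 5 days, a combined fix-and-stain solution (final 0.05% Triton X-100, 1% formaldehyde, 1 ug/ml Hoechst) was added. Nuclei counted on 4× images gave relative viability as treated counts over vehicle counts, reported as the median of duplicate plates.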

[2] = compound: C=CCNC1=C2C[C@@H](C)C[C@H](OC)[C@H](O)[C@@H](C)/C=C(\C)[C@H](OC(N)=O)[C@@H](OC)/C=C\C=C(/C)C(=O)NC(=CC1=O)C2=O [17-AAG] + Nc1ncn([C@H]2C[C@H](O)[C@@H](CO)O2)c(=O)n1 [Decitabine] (partner 2 µM)
Summary of the method: as §1

[3] = compound: C=CCNC1=C2C[C@@H](C)C[C@H](OC)[C@H](O)[C@@H](C)/C=C(\C)[C@H](OC(N)=O)[C@@H](OC)/C=C\C=C(/C)C(=O)NC(=CC1=O)C2=O [17-AAG] + CS(=O)(=O)CCNCc1ccc(-c2ccc3ncnc(Nc4ccc(OCc5cccc(F)c5)c(Cl)c4)c3c2)o1 [Lapatinib] (partner 2 µM)
Summary of the method: as §1

[4] = compound: C=CCNC1=C2C[C@@H](C)C[C@H](OC)[C@H](O)[C@@H](C)/C=C(\C)[C@H](OC(N)=O)[C@@H](OC)/C=C\C=C(/C)C(=O)NC(=CC1=O)C2=O [17-AAG] + CCNC(=O)c1noc(-c2cc(C(C)C)c(O)cc2O)c1-c1ccc(CN2CCOCC2)cc1 [Luminespib] (partner 0.01 µM)
Summary of the method: as §1

Row | Cell Line | relative viability ([1]; first compound 0.00128 µM) | relative viability ([1]; first compound 0.004048 µM) | relative viability ([1]; first compound 0.0128 µM) | relative viability ([1]; first compound 0.04048 µM) | relative viability ([1]; first compound 0.128 µM) | relative viability ([2]; first compound 0.00128 µM) | relative viability ([2]; first compound 0.004048 µM) | relative viability ([2]; first compound 0.0128 µM) | relative viability ([2]; first compound 0.04048 µM) | relative viability ([2]; first compound 0.128 µM) | relative viability ([3]; first compound 0.00128 µM) | relative viability ([3]; first compound 0.004048 µM) | relative viability ([3]; first compound 0.0128 µM) | relative viability ([3]; first compound 0.04048 µM) | relative viability ([3]; first compound 0.128 µM) | relative viability ([4]; first compound 0.00128 µM) | relative viability ([4]; first compound 0.004048 µM) | relative viability ([4]; first compound 0.0128 µM) | relative viability ([4]; first compound 0.04048 µM) | relative viability ([4]; first compound 0.128 µM)
1 | PC-14 | 0.298 | 0.132 | 0.0665 | 0.0524 | 0.0698 | 0.183 | 0.199 | 0.097 | 0.103 | 0.0891 | 0.315 | 0.304 | 0.311 | 0.156 | 0.113 | 0.146 | 0.111 | 0.143 | 0.162 | 0.128
2 | UMC-11 | 0.519 | 0.376 | 0.261 | 0.0963 | 0.174 | 0.484 | 0.658 | 0.536 | 0.523 | 0.255 | 0.887 | 0.992 | 0.566 | 0.204 | 0.127 | 0.973 | 0.94 | 0.552 | 0.254 | 0.196
3 | PC-3 [JPC-3] | 1.23 | 1.17 | 1.16 | 0.581 | 0.697 | 0.829 | 0.816 | 0.911 | 0.451 | 0.658 | 0.486 | 0.442 | 0.444 |  | 0.472 | 0.766 | 0.723 | 0.71 |  | 0.538
4 | LK-2 | 0.831 | 0.765 | 0.266 | 0.149 | 0.123 | 0.269 | 0.37 | 0.187 | 0.0931 | 0.0957 | 1.04 | 1.01 | 0.752 | 0.464 | 0.158 | 0.201 | 0.162 | 0.181 | 0.17 | 0.177
5 | COR-L23 | 0.377 | 0.322 | 0.324 | 0.169 | 0.112 | 0.328 | 0.52 | 0.432 | 0.351 | 0.138 | 0.769 | 0.82 | 1.06 | 0.852 | 0.169 | 0.648 | 0.504 | 0.46 | 0.11 | 0.0893
6 | NCI-H1944 | 0.4 | 0.413 | 0.383 | 0.335 | 0.137 | 0.418 | 0.445 | 0.441 | 0.357 | 0.163 | 0.795 | 0.889 | 0.646 | 0.482 | 0.169 | 0.595 | 0.603 | 0.565 | 0.219 | 0.151
7 | NCI-H3122 | 0.598 | 0.61 | 0.538 | 0.288 | 0.124 | 0.487 | 0.413 | 0.426 | 0.235 | 0.118 | 1 | 0.931 | 0.542 | 0.293 | 0.218 | 0.099 | 0.059 | 0.0637 | 0.0599 | 0.096
8 | SW 1573 | 0.441 | 0.234 | 0.182 | 0.113 | 0.0907 | 0.336 | 0.284 | 0.159 | 0.113 | 0.0972 | 1.06 | 1.21 | 0.897 | 0.217 | 0.117 | 0.285 | 0.168 | 0.146 | 0.12 | 0.0673
9 | EMC-BAC-2 | 0.533 | 0.516 | 0.316 | 0.334 | 0.273 | 0.98 | 0.939 | 0.692 | 0.31 | 0.219 | 0.948 | 0.948 | 0.907 | 0.777 | 0.16 | 1.14 | 1.06 | 0.565 | 0.268 | 0.248
10 | NCI-H1650 | 0.721 | 0.636 | 0.147 | 0.156 | 0.113 | 0.384 | 0.33 | 0.185 | 0.165 | 0.134 | 0.624 | 0.303 | 0.133 | 0.171 | 0.175 | 0.195 | 0.194 | 0.228 | 0.214 | 0.215
11 | NCI-H647 | 0.575 | 0.237 | 0.0687 | 0.0686 | 0.0642 | 0.365 | 0.272 | 0.0949 | 0.129 | 0.102 | 1.15 | 0.386 | 0.0807 | 0.0919 | 0.0634 | 0.128 | 0.122 | 0.098 | 0.109 | 0.0989
12 | LCLC-97TM1 | 0.423 | 0.359 | 0.406 | 0.302 | 0.255 | 0.197 | 0.21 | 0.255 | 0.259 | 0.185 | 0.903 | 1.12 | 0.647 | 0.405 | 0.0945 | 0.826 | 0.785 | 0.707 | 0.58 | 0.195
13 | H3255 | 0.556 | 0.494 | 0.484 | 0.284 | 0.231 | 0.788 | 0.566 | 0.488 | 0.231 | 0.198 | 0.296 | 0.338 | 0.275 | 0.235 | 0.175 | 0.716 | 0.872 | 0.536 | 0.203 | 0.208
14 | LXF-289 | 1.06 | 0.936 | 0.889 | 0.817 | 0.135 | 0.4 | 0.473 | 0.355 | 0.297 | 0.19 | 0.907 | 0.874 | 0.694 | 0.449 | 0.152 | 0.628 | 0.556 | 0.377 | 0.121 | 0.0993
15 | NCI-H2347 | 0.589 | 0.607 | 0.496 | 0.349 | 0.341 | 0.659 | 0.631 | 0.558 | 0.453 | 0.386 | 0.938 | 0.96 | 1.04 | 0.647 | 0.432 | 0.62 | 0.278 | 0.274 | 0.299 | 0.374
16 | LC-2-ad | 0.751 | 0.728 | 0.643 | 0.475 | 0.225 | 0.776 | 0.876 | 0.713 | 0.645 | 0.227 | 1.01 | 0.877 | 0.548 | 0.126 | 0.0893 | 0.949 | 0.83 | 0.305 | 0.302 | 0.258
17 | SK-MES-1 | 0.732 | 0.494 | 0.184 | 0.17 | 0.16 | 0.405 | 0.362 | 0.197 | 0.145 | 0.141 | 0.55 | 0.559 | 0.405 | 0.188 | 0.145 | 0.633 | 0.327 | 0.181 | 0.166 | 0.157
18 | A-427 | 0.814 | 0.686 | 0.806 | 0.606 | 0.241 | 0.55 | 0.528 | 0.561 | 0.395 | 0.306 | 1.04 | 1.12 | 1.05 | 1.12 | 0.607 | 0.994 | 0.902 | 0.66 | 0.379 | 0.183
19 | NCI-H1975 | 0.745 | 0.765 | 0.158 | 0.128 | 0.121 | 0.378 | 0.396 | 0.266 | 0.175 | 0.14 | 0.872 | 0.739 | 0.256 | 0.166 | 0.11 | 0.198 | 0.175 | 0.14 | 0.176 | 0.139
20 | NCI-H1437 | 0.626 | 0.609 | 0.285 | 0.194 | 0.173 | 0.531 | 0.636 | 0.504 | 0.311 | 0.241 | 0.825 | 0.7 | 0.247 | 0.151 | 0.0848 | 1.09 | 0.818 | 0.631 | 0.206 | 0.19
21 | NCI-H2009 | 0.699 | 0.712 | 0.7 | 0.295 | 0.0798 | 0.421 | 0.398 | 0.342 | 0.265 | 0.134 | 1.16 | 0.954 | 0.816 | 0.424 | 0.0895 | 0.983 | 0.983 | 0.871 | 0.354 | 0.0842
22 | NCI-H1651 | 0.173 | 0.19 | 0.21 | 0.153 | 0.159 | 0.389 | 0.68 | 0.481 | 0.362 | 0.179 | 0.841 | 0.874 | 0.519 | 0.168 | 0.146 | 0.884 | 0.774 | 0.394 | 0.213 | 0.186
23 | NCI-H1666 | 0.756 | 0.721 | 0.712 | 0.526 | 0.556 | 0.74 | 0.804 | 0.641 | 0.364 | 0.363 | 0.682 | 0.595 | 0.234 | 0.261 | 0.219 | 1 | 0.86 | 0.474 | 0.296 | 0.342
24 | NCI-H1734 | 0.558 | 0.686 | 0.59 | 0.255 | 0.119 | 0.502 | 0.536 | 0.46 | 0.242 | 0.142 | 0.952 | 0.934 | 0.764 | 0.579 | 0.141 | 0.197 | 0.18 | 0.167 | 0.143 | 0.16
25 | EPLC-272H | 0.721 | 0.662 | 0.195 | 0.0777 | 0.0732 | 0.367 | 0.352 | 0.307 | 0.158 | 0.0907 | 1.04 | 1.02 | 0.929 | 0.425 | 0.153 | 0.191 | 0.231 | 0.201 | 0.173 | 0.0978
26 | NCI-H2023 | 0.472 | 0.163 | 0.0796 | 0.0702 | 0.0752 | 0.178 | 0.168 | 0.0829 | 0.0643 | 0.0587 | 0.872 | 0.675 | 0.0806 | 0.106 | 0.0805 | 0.52 | 0.25 | 0.228 | 0.0785 | 0.0689
27 | BEN | 1.06 | 1.03 | 1.01 | 0.666 | 0.358 | 0.613 | 0.712 | 0.759 | 0.446 | 0.288 | 0.859 | 0.726 | 0.727 | 0.405 | 0.204 | 0.33 | 0.408 | 0.206 | 0.241 | 0.194
